Data taken from publication PMC3815892 (Microbial biotechnology, 2012).

Target: Ar‐BVMO (Acinetobacter radioresistens, UniProt D7PBN2)
Experiment: HPLC product detection
Format: biochemical
Conditions: 500 uM substrate, 500 uM NADPH, 0.7 uM enzyme, 37 C, 20 min

## CCc1cc(C(N)=S)ccn1 [ethionamide]
  HPLC product detection (ethionamide S-oxide): confirmed the presence of ethionamide S‐oxide product
